Test results from patent US6737431B2 (Bristol-Myers Squibb Company, priority 2002, dated 2004).

Assays:
melatonin ML1a receptor = target: T1, melatonin ML1a receptor (Homo sapiens, UniProt P48039); experiment: Melatonergic receptor binding, 2-[125I]-iodomelatonin, ML1a; conditions: Table I; NIH-3T3 membranes, 0.1 nM 2-[125I]-iodomelatonin, 37° C. 1 hour
T1 construct: expressed in transfected cells; membrane homogenates
Description: (§1) Melatonergic Receptor Binding Activity
(§2) (a) TME=50 mM Tris buffer containing 12.5 mM MgCl2, and 2 mM EDTA, pH 7.4 at 37° C., with concentrated HCl.
(§3) (b) Wash buffer: 20 mM Tris base containing 2 mM MgCl2, pH 7.4 at room temperature.
(§4) (c) 10^−4 M melatonin (10^−5 M final concentration).
(d) 2-[^125I]-iodomelatonin ML1a, 0.1 nM final concentration.
(§5) 2. Membrane Homogenates: The melatonin ML1a and ML1b receptors cDNA were individually subcloned into pcDNA3 and introduced into NIH-3T3 cells using Lipofectamine. Transformed NIH-3T3 cells resistant to geneticin (G-418) were isolated, and single colonies expressing high levels of 2[^125I]-iodomelatonin binding were isolated. Cells are maintained in DMEM supplemented with 10% calf serum and G-418 (0.5 g/liter). Cells are grown to confluency in T-175 flasks, scraped using Hank's balanced salt solution, and frozen at −80° C. For preparing membrane homogenates, pellets are thawed on ice, and re-suspended in TME buffer in the presence of 10 μg/ml aprotinin and leupeptin, and 100 μM phenylmethylsulfonylfluoride. The cells were then homogenized using a dounce homogenizer, and centrifuged. The resulting pellet was re-suspended with dounce homogenizer in TME (supplemented with the above protease inhibitors) and frozen. On the day of assay, a small aliquot was thawed on ice and re-suspended in the ice cold TME (1:50-1:100 v/v) and held on ice until assayed.
(§6) 3. Incubation: 37° C. for 1 hour. Reaction is terminated by filtration. Filters were washed 3 times.
(§7) 4. References: Reppert, S. M. et al., Neuron, 13, p. 1177-1185 (1994); and Reppert, S. M. et al., Proc. Natl. Acad. Sci. USA, 92, p. 8734-8738 (1995).
(§8) The compounds of the present invention have affinity for receptors of the endogenous pineal hormone, melatonin, as determined in receptor binding assays described above in Tables I to III for the ML1a and ML1b (human) receptors. Melatonin is involved in the regulation of a variety of biological rhythms and exerts its biological effects via interaction with specific receptors. There is evidence that administration of melatonin agonists are of clinical utility in the treatment of various conditions regulated by melatonin activity. Such conditions include depression, jet-lag, work-shift syndrome, sleep disorders, glaucoma, some disorders associated with reproduction, cancer benign prostatic hyperplasia, immune disorders, and neuroendocrine disorders.

melatonin ML1b receptor = target: T2, melatonin ML1b receptor (Homo sapiens, UniProt P49286); experiment: Melatonergic receptor binding, 2-[125I]-iodomelatonin, ML1b; conditions: NIH-3T3 membranes, 0.2 nM 2-[125I]-iodomelatonin, 37° C. 1 hour
T2 construct: expressed in transfected cells; membrane homogenates
T2 sequence (P49286 1-362): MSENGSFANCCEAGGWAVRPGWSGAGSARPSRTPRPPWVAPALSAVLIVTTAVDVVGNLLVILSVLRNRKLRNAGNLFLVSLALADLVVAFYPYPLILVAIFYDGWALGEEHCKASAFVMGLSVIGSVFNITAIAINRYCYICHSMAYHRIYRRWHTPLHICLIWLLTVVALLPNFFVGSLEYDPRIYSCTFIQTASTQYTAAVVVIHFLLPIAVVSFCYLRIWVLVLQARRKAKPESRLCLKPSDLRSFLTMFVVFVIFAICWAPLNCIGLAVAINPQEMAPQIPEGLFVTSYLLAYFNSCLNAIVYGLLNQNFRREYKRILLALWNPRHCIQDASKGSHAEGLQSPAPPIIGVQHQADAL
Description: as §1, §2, §3, §4
(e) 2-[^125I]-iodomelatonin ML1b, 0.2 nM final concentration.
as §5, §6, §7, §8

T1 sequence (P48039 whole entry): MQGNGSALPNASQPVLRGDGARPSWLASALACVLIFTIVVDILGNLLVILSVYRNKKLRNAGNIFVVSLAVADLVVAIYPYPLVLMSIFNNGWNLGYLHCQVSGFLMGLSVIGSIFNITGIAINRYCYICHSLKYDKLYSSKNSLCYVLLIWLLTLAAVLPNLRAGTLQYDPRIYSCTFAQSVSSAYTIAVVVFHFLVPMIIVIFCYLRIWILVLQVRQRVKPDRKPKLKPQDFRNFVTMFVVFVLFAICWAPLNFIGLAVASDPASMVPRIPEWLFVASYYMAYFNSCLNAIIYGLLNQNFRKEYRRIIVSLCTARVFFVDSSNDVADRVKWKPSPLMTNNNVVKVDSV

| Compound | IC50 (melatonin ML1a receptor) [nM] | IC50 (melatonin ML1b receptor; Table I) [nM] | IC50 (melatonin ML1b receptor; Table II) [nM] |
| --- | --- | --- | --- |
| CCCC(=O)NCCCc1cccc2nc(C)oc12 [Example 3, N-[3-(2-Methyl-7-benzoxazolyl)propyl]butanamide] | < 10 | < 10 |  |
| Cc1nc2cccc(CCCNC(=O)C(C)C)c2o1 [Example 5, N-[3-(2-Methyl-7-benzoxazolyl)propyl]-2-methylpropanamide] | < 10 | < 10 |  |
| CCNC(=O)NCCCc1cccc2nc(C)oc12 [Example 6, (Ethylamino)-N-[3-(2-methylbenzoxazol-7-yl)propyl]carboxamide] | 10 to 250 | 10 to 250 |  |
| CCC(=O)NCCCc1cccc2nc(CC)oc12 [Example 8, N-[3-(2-Ethylbenzoxazol-7-yl)propyl]propanamide] | < 10 | < 10 |  |
| CCCC(=O)NCCCc1cccc2nc(CC)oc12 [Example 9, N-[3-(2-Ethylbenzoxazol-7-yl)propyl]butanamide] | 10 to 250 | < 10 |  |
| CCc1nc2cccc(CCCNC(=O)C3CC3)c2o1 [Example 11, Cyclopropyl-N-[3-(2-ethylbenzoxazol-7-yl)propyl]carboxamide] | < 10 | 10 to 250 |  |
| CCNC(=O)NCCCc1cccc2nc(CC)oc12 [Example 12, (Ethylamino)-N-[3-(2-ethylbenzoxazol-7-yl)propyl]carboxamide] | 10 to 250 | 10 to 250 |  |
| CCCc1nc2cccc(CCCNC(C)=O)c2o1 [Example 13, N-[3-(2-Propylbenzoxazol-7-yl)propyl]acetamide] | > 250 | 10 to 250 |  |
| CCCc1nc2cccc(CCCNC(=O)CC)c2o1 [Example 14, N-[3-(2-Propylbenzoxazol-7-yl)propyl]propanamide] | 10 to 250 | 10 to 250 |  |
| CC(=O)NCCCc1cccc2nc(-c3ccccc3)oc12 [Example 19, N-[3-(2-Phenylbenzoxazol-7-yl)propyl]acetamide] | 10 to 250 | 10 to 250 |  |
| CCCC(=O)NCCCc1cccc2nc(-c3ccccc3)oc12 [Example 21, N-[3-(2-Phenylbenzoxazol-7-yl)propyl]butanamide] | 10 to 250 | 10 to 250 |  |
| CC(C)C(=O)NCCCc1cccc2nc(-c3ccccc3)oc12 [Example 22, 2-Methyl-N-[3-(2-phenylbenzoxazol-7-yl)propyl]propanamide] | 10 to 250 | 10 to 250 |  |
| CCNC(=O)NCCCc1cccc2nc(-c3ccccc3)oc12 [Example 24, (Ethylamino)-N-[3-(2-phenylbenzoxazol-7-yl)propyl]carboxamide] | > 250 | 10 to 250 |  |
| CCCC(=O)NCCCc1cccc2nc(CCCCc3ccccc3)oc12 [Example 27, N-{3-[2-(4-Phenylbutyl)benzoxazol-7-yl]propyl}butanamide] | < 10 | 10 to 250 |  |
| CCNC(=O)NCCCc1cccc2nc(CCCCc3ccccc3)oc12 [Example 30, (Ethylamino)-N-{3-[2-(4-phenylbutyl)benzoxazol-7-yl]propyl}carboxamide] | < 10 | 10 to 250 |  |
| CC(=O)NCCCc1cccc2ncoc12 [Example 31, N-(3-Benzoxazol-7-ylpropyl)acetamide] | 10 to 250 | 10 to 250 |  |
| CCC(=O)NCCCc1cccc2nc(C(C)C)oc12 [Example 35, N-{3-[2-(Methylethyl)benzoxazol-7-yl]propyl}propanamide] | 10 to 250 | 10 to 250 |  |
| CC(C)C(=O)NCCCc1cccc2nc(C(C)C)oc12 [Example 37, 2-Methyl-N-{3-[2-(methylethyl)benzoxazol-7-yl]propyl}propanamide] | 10 to 250 | 10 to 250 |  |
| CCc1nc2ccc(-c3ccco3)c(CCCNC(=O)c3ccccc3)c2o1 [Example 74, N-[3-(2-Ethyl-6-(2-furyl)benzoxazol-7-yl)propyl]benzamide] |  |  | > 250 |

Next, values leading:

| IC50 (melatonin ML1a receptor) [nM] | IC50 (melatonin ML1b receptor; Table I) [nM] | IC50 (melatonin ML1b receptor; Table II) [nM] | Compound |
| --- | --- | --- | --- |
| 10 to 250 | 10 to 250 |  | CC(=O)NCCCc1cccc2nc(C)oc12 [Example 1, N-[3-(2-Methyl-7-benzoxazolyl)propyl]acetamide] |
| < 10 | < 10 |  | CCC(=O)NCCCc1cccc2nc(C)oc12 [Example 2, N-[3-(2-Methyl-7-benzoxazolyl)propyl]propanamide] |
| < 10 | < 10 |  | Cc1nc2cccc(CCCNC(=O)C3CC3)c2o1 [Example 4, N-[3-(2-Methyl-7-benzoxazolyl)propyl]cyclopropanecarboxamide] |
| 10 to 250 | < 10 |  | CCc1nc2cccc(CCCNC(C)=O)c2o1 [Example 7, N-[3-(2-Ethylbenzoxazol-7-yl)propyl]acetamide] |
| 10 to 250 | 10 to 250 |  | CCc1nc2cccc(CCCNC(=O)C(C)C)c2o1 [Example 10, N-[3-(2-Ethylbenzoxazol-7-yl)propyl]-2-methylpropanamide] |
| > 250 | 10 to 250 |  | CCCC(=O)NCCCc1cccc2nc(CCC)oc12 [Example 15, N-[3-(2-Propylbenzoxazol-7-yl)propyl]butanamide] |
| 10 to 250 | 10 to 250 |  | CCCc1nc2cccc(CCCNC(=O)C(C)C)c2o1 [Example 16, 2-Methyl-N-[3-(2-propylbenzoxazol-7-yl)propyl]propanamide] |
| 10 to 250 | 10 to 250 |  | CCCc1nc2cccc(CCCNC(=O)C3CC3)c2o1 [Example 17, Cyclopropyl-N-[3-(2-propylbenzoxazol-7-yl)propyl]carboxamide] |
| > 250 | 10 to 250 |  | CCCc1nc2cccc(CCCNC(=O)NCC)c2o1 [Example 18, (Ethylamino)-N-[3-(2-propylbenzoxazol-7-yl)propyl]carboxamide] |
| 10 to 250 | 10 to 250 |  | CCC(=O)NCCCc1cccc2nc(-c3ccccc3)oc12 [Example 20, N-[3-(2-Phenylbenzoxazol-7-yl)propyl]propanamide] |
| 10 to 250 | 10 to 250 |  | O=C(NCCCc1cccc2nc(-c3ccccc3)oc12)C1CC1 [Example 23, Cyclopropyl-N-[3-(2-phenylbenzoxazol-7-yl)propyl]carboxamide] |
| < 10 | 10 to 250 |  | CC(=O)NCCCc1cccc2nc(CCCCc3ccccc3)oc12 [Example 25, N-{3-[2-(4-Phenylbutyl)benzoxazol-7-yl]propyl}acetamide] |
| < 10 | 10 to 250 |  | CCC(=O)NCCCc1cccc2nc(CCCCc3ccccc3)oc12 [Example 26, N-{3-[2-(4-Phenylbutyl)benzoxazol-7-yl]propyl}propanamide] |
| < 10 | 10 to 250 |  | CC(C)C(=O)NCCCc1cccc2nc(CCCCc3ccccc3)oc12 [Example 28, 2-Methyl-N-{3-[2-(4-phenylbutyl)benzoxazol-7-yl]propyl}propanamide] |
| < 10 | 10 to 250 |  | O=C(NCCCc1cccc2nc(CCCCc3ccccc3)oc12)C1CC1 [Example 29, Cyclopropyl-N-{3-[2-(4-phenylbutyl)benzoxazol-7-yl]propyl}carboxamide] |
| 10 to 250 | < 10 |  | CCC(=O)NCCCc1cccc2ncoc12 [Example 32, N-(3-Benzoxazol-7-ylpropyl)propanamide] |
| 10 to 250 | < 10 |  | CC(C)C(=O)NCCCc1cccc2ncoc12 [Example 33, N-(3-Benzoxazol-7-ylpropyl)-2-methylpropanamide] |
| 10 to 250 | 10 to 250 |  | CC(=O)NCCCc1cccc2nc(C(C)C)oc12 [Example 34, N-{3-[2-(Methylethyl)benzoxazol-7-yl]propyl}acetamide] |
| 10 to 250 | 10 to 250 |  | CCCC(=O)NCCCc1cccc2nc(C(C)C)oc12 [Example 36, N-{3-[2-(Methylethyl)benzoxazol-7-yl]propyl}butanamide] |
